Data published in paper PMC8298375 (Naunyn-Schmiedeberg's Archives of Pharmacology, 2021).
Where two headings read alike, the source gives them in different places.

Assays:
[1] = test system: scopolamine-induced amnesia rats; assay: Locomotor activity (photoactometer), scopolamine-induced amnesia; type: in vivo, Wistar rats; conditions: scopolamine model, Mean ± SEM, photo beam counts for 5 min
Experimental: (§1) In the acute model, the rats were trained for Morris water maze (MWM) and passive avoidance test (PAT) tasks in the first 4 days. On the 5th day, 30 min after scopolamine administration, respective treatments were given to all the groups. Fifteen minutes thereafter, the test trials were conducted in MWM and PAT.
Locomotor activity was assessed in animals using a digital photoactometer (INCO, India) which contains a cage that is 30-cm long and 30-cm deep with a wire mesh at the bottom. The apparatus was placed in a dark, light, and sound attenuated testing room. Before the locomotor task, animals were placed individually in the activity meter for 3 min for habituation. Then, the ambulatory movements were recorded for 5 min and expressed in terms of total photo beam counts for 5 min per animal.

[2] = test system: scopolamine-induced amnesia rats; assay: Morris water maze test, scopolamine-induced amnesia (acute model); type: in vivo, Wistar rats; conditions: scopolamine 1 mg/kg i.p., Mean ± SEM; for Escape latency: test 15 min after treatment
Experimental: as §1
(§2) A modified Morris water maze test was used (Nampoothiri [2017]). The pool was positioned in the middle of a dimly lit testing room with distant visual clues that could be used by rats for spatial orientation. The maze consisted of a circular water pool (140 × 45 cm) divided into four equally sized quadrants (NE, SE, SW, and NW) by two imaginary diagonal lines running across the center of the pool. The pool was filled with water maintained at a temperature of 23 ± 2 °C. In the NE quadrant (target quadrant) equidistant from the center and edge of the pool, a platform of 25-cm height and 10-cm diameter was invisibly placed submerged 1 cm below the water surface. Rats were gently placed in each quadrant facing the wall and trained to locate the hidden black platform, and the trial was terminated when the rat reached the platform or after 60 s. Accordingly, rats were subjected to one session of four trials per day for four consecutive days. All rats were left on the platform for 30 s and then removed and towel dried. Inter-trial interval was kept a constant 180 s throughout the study. In the probe trial, platform was removed, and rats were allowed to swim for a 60-s trial period. Data was collected in the form of escape latencies to find the platform; percent of time spent over the target quadrant.

[3] = test system: ICV colchicine-induced dementia rats; assay: Morris water maze test, ICV colchicine-induced dementia (chronic model); type: in vivo, Wistar rats; conditions: Mean ± SEM; for Escape latency, 14th day / Escape latency, 21st day: colchicine 15 µg ICV; for Escape latency, Probe day: colchicine model
Experimental: In the chronic model, the rats were trained for MWM and PAT tasks for the first 4 days followed by intracerebroventricular (i.c.v.) administration of colchicine on day 6. After establishing dementia on day 10 of the colchicine administration, the drug treatment was initiated from day 11 to 24. The effects of different drug treatments on dementia were assessed on days 14 and 21. On these particular days, the swim test was performed 15 min after the administration of different treatments and escape latencies; residence time and peripheral swim time were recorded (Nampoothiri [2017]). The retention trials for PAT on day 17 and 23 were performed on days 17 and 23, 15 min after the administration of the drug.
On the 6th day, surgery was performed as described (Bokare et al. [2018]). Rat was anesthetized with sodium pentobarbital (45 mg/kg, i.p.) and positioned in stereotaxic apparatus. The head was positioned in a frame, and a midline sagittal incision was made in the scalp. Two holes were drilled through the skull at coordinates (0.8 mm posterior to bregma, 1.8 mm lateral to the sagittal suture, and 3.6 mm beneath the cortical surface) to place the injection cannula. Rats were intracerebroventricularly infused with either artificial cerebrospinal fluid (ACSF; in mM: 147 NaCl, 2.9 KCl, 1.6 MgCl2, 1.7 CaCl2, and 2.2 dextrose) or 15 µg of colchicine in 5 µL ACSF using a Hamilton microsyringe positioned in the injection cannula. To promote back diffusion, the microsyringe was left in place for 2 min following injection. The scalp was then closed with a suture. After surgery, all animals received gentamicin (5 mg/kg, i.p.) to prevent sepsis. Special care was taken during the postoperative period to provide food and water inside the cage of the rat. In sham-operated rats, surgery was identical except for injection of the solution.
as §2

AChE = type: in vivo, rat; conditions: scopolamine model; for % AChE Inhibition: plasma
Experimental: Samples were then centrifuged at 10,000 rpm for 5 min, and plasma was stored at − 70 °C until analysis.
Thiocholine, which was produced due to the hydrolysis of acetylthiocholine (ACTI) by AChE, was estimated by making it react with 5, 5′-dithiobis-(2-nitrobenzoic acid) (DTNB). The chemical, 5-thio-2-nitrobenzoic acid (yellow color complex), which was released due to reaction was estimated using a UV spectrophotometer in the range of 400 to 420 nm with maximal absorption at 412 nm. One hundred microliter of blank rat plasma was taken in the polypropylene vials. To this, 2.8 mL of phosphate buffer (0.01 M, pH 8) and 100 µL of DTNB reagents were added and mixed well. Then, 20 µL of ACTI (26.01 mg/mL of Milli-Q water) was added to the contents of the cuvette to initiate the enzyme reaction. The reaction kinetics was monitored at different time intervals (0, 1, 2, 3, 4 min), and absorbance was noted. 2.8 mL buffer (0.01 M, pH 8.0) and 100 µL DTNB reagent served as blank. Concentrations in the range of 0.03–30 mM were prepared using methanol as a diluent. […] Substrate concentration and reaction time were optimized such that sufficient concentration of ACTI is available to bind with the enzyme to initiate the reaction and also it should not saturate the enzyme. In this study, varying concentrations (100–1000 µM) of ACTI were prepared, and reaction kinetics were observed. In general, the maximum time should be either 2–4 min or even less, because the enzyme might undergo degradation. In the present study, up to 4 min of reaction kinetics (changing the optical density or absorbance) was measured. One unit of AChE activity is defined as the number of µmol of acetylthiocholine iodide hydrolyzed per minute. The specific activity of AChE is expressed in moles/min/mg of protein (Kaur et al. [2015]): AChEActivity=(abs.permin×1000×volumeofenzyme)/(13600×TRM)AChEActivity=abovevalue×1000(nanomolar/min/mL)
where 13,600 = molar extinction coefficient of DTNB: 1000-molar conversion factor: (TRM) total reaction mixture 3 mL: volume of enzyme (0.1 mL).

## CCN(C)C(=O)Oc1cccc([C@H](C)N(C)C)c1 [INRSM, rivastigmine]
[1]; listed as SCP + INRSM
  Score on actophotometer: 296.50 ± 17.68
[2]; listed as SCP + INRSM
  Peripheral swim time: 34.22 ± 0.74 s
  Escape latency: 3.11 ± 0.36 s
[3]; listed as COL + INRSM
  Escape latency, 14th day: 5.28 ± 0.7425 s
  Escape latency, 21st day: 4.67 ± 0.3849 c s
  Escape latency, Probe day: 3.28 ± 0.5800 s
AChE
  peak AChE inhibition (Emax, maximum inhibition) in plasma: 71.95%
  time of peak AChE inhibition in plasma: 10 min
AChE; 0 min, listed as SCP + INRSM
  % AChE Inhibition: 0.00 ± 0.0294%
AChE; 5 min, listed as SCP + INRSM
  % AChE Inhibition: 64.46 ± 0.1016%
AChE; 10 min, listed as SCP + INRSM
  % AChE Inhibition: 71.95 ± 0.0398%
AChE; 15 min, listed as SCP + INRSM
  % AChE Inhibition: 71.82 ± 0.0577 a,b,c %
AChE; 20 min, listed as SCP + INRSM
  % AChE Inhibition: 62.84 ± 0.0565%
AChE; 30 min, listed as SCP + INRSM
  % AChE Inhibition: 63.67 ± 0.0441%
AChE; 45 min, listed as SCP + INRSM
  % AChE Inhibition: 59.44 ± 0.0384%
AChE; 60 min, listed as SCP + INRSM
  % AChE Inhibition: 57.57 ± 0.0314%
AChE; 90 min, listed as SCP + INRSM
  % AChE Inhibition: 56.2 ± 0.317%
AChE; 120 min, listed as SCP + INRSM
  % AChE Inhibition: 51.35 ± 0.0329%
AChE; 180 min, listed as SCP + INRSM
  % AChE Inhibition: 49.26 ± 0.0264%

## CCN(C)C(=O)Oc1cccc([C@H](C)N(C)C)c1 [ORSM, rivastigmine]
[1]; listed as SCP + ORSM
  Score on actophotometer: 238.16 ± 20.88
[2]; listed as SCP + ORSM
  Escape latency: 3.89 ± 0.44 s
[3]; listed as COL + ORSM
  Escape latency, 14th day: 5.89 ± 0.7027 s
  Escape latency, 21st day: 5.28 ± 0.3809 c s
  Escape latency, Probe day: 2.83 ± 0.3181 s
AChE
  peak AChE inhibition (Emax, maximum inhibition) in plasma: 71.11%
  time of peak AChE inhibition in plasma: 60 min
AChE; 0 min, listed as SCP + ORSM
  % AChE Inhibition: 0.00 ± 0.0543%
AChE; 5 min, listed as SCP + ORSM
  % AChE Inhibition: 26.67 ± 0.1358%
AChE; 10 min, listed as SCP + ORSM
  % AChE Inhibition: 49.99 ± 0.1026%
AChE; 15 min, listed as SCP + ORSM
  % AChE Inhibition: 62.03 ± 0.0877 a,b %
AChE; 20 min, listed as SCP + ORSM
  % AChE Inhibition: 66.09 ± 0.0921%
AChE; 30 min, listed as SCP + ORSM
  % AChE Inhibition: 64.89 ± 0.0895%
AChE; 45 min, listed as SCP + ORSM
  % AChE Inhibition: 70.42 ± 0.0577%
AChE; 60 min, listed as SCP + ORSM
  % AChE Inhibition: 71.11 ± 0.0438%
AChE; 90 min, listed as SCP + ORSM
  % AChE Inhibition: 68.18 ± 0.0298%
AChE; 120 min, listed as SCP + ORSM
  % AChE Inhibition: 64.36 ± 0.0262%
AChE; 180 min, listed as SCP + ORSM
  % AChE Inhibition: 48.89 ± 0.0378%
AChE; 240 min
  % AChE Inhibition: 37.05 ± 0.0184%
